One block for each compound: values may come before it.
Experiments:
[1] = Multicomponent pharmacokinetics in rat plasma after i.v. safflower injection (SI); conditions: for concentration at 15 min / AUC(0-inf) / AUC(0-t) / Cmax / MRT inf / MRT last / Vd / clearance / half-life: male, Sprague-Dawley, rat, plasma; for concentration at 15 min: intravenous; for AUC(0-inf) / AUC(0-t) / Cmax / MRT inf / MRT last / Vd / clearance / half-life: iv
Experimental: The animal experiments were approved by the Animal Care and Use Committee of the College of Animal Science (College of Bee Science), Fujian Agriculture and Forestry University (Approval Number: PZCASFAFU21012). 250 ± 20 g of male Sprague-Dawley (SD) rats were provided by Lab Animal Center in Fujian Medical University (Fuzhou, China).
Ten rats were divided into three groups (Low dose group, n = 4; medium and high groups, n = 3, respectively). […] For each rat, 2 ml of physiological saline was supplemented after 30 min sampling via intraperitoneal injection. The plasma samples were obtained by centrifugation at 3,000 rpm for 10 min and stored at −20°C until analysis.
Clear supernatant (5 μl) was injected into HPLC-MS for bioanalysis.
The sample was separated on a RD-C18 column (4.6 mm × 50 mm, 3.5 μm, Zhongpu Develop, China). The mobile phase incudes water with 0.1% acetic acid (A) and acetonitrile (B). […] The column temperature, flow rate and injection volume were set at 30°C, 0.5 ml/min and 5 μl, respectively.
Non-compartmental model was used to calculate the PK parameters by DAS 3.0 software (Chinese Pharmacologic Society, Beijing, China). A single-tailed t-test was carried out in the study.

[2] = tested on: H9c2 cardiomyocytes injured by H2O2; assay: Protection of cardiomyocytes injured by H2O2 (MTT); assay type: cell-based
Experimental: H9c2 cardiomyocytes obtained from Cell Bank of the Chinese Academy of Sciences (Shanghai, China) were cultured in DMEM (high glucose) supplemented with 1% P/S and 15% FBS in 5% CO2 at 37°C. The cells were collected with 0.25% trypsin, followed by re-seeding in 96-well multiplates with a density of 5×10^3 cells per well. The cell experiments were grouped as follows: normal group, model group (H2O2), administration groups and positive control groups (N-Acetyl-L-cysteine, NAC). […] After that, cells were incubated with 0.5 mg/ml of MTT for 4 h under standard condition, followed by addition of 150 µl DMSO into every well. The cell supernatants were finally removed and the optical density (OD) was recorded at 570 nm using a microplate reader (Thermo Fisher Scientific, United States). The protection rate of the compounds on H9c2 cardiomyocytes was calculated as (OD valueadministration group (or NAC group)-OD valuemodel group)/(OD valuenormal group-OD valuemodel group) ×100%.

[3] = Stability of 6 compounds of SI in rat plasma; conditions: for 10h in auto-sampler vials RE: extracted rat plasma; for 6h at room temperature RE / Freeze-thaw stability (three cycles) RE / Long-term stability (-80℃,15 days) RE: rat plasma
Source text: The LC-MS method was validated by linearity, limits of detection (LOD), limits of quantification (LOQ), precision, accuracy, extraction recovery, matrix effect and stability of the 6 ingredients in rat plasma. Calibration curves were plotted using weighted linear regression of the peak area ratio of analyte to the IS against the corresponding nominal concentration of the analyte. LOD and LOQ were defined as the detectable concentration at which the ratio of signal to noise was more than 3 and 10, respectively. Intra- and inter-day accuracy and precision were assessed by detecting quality control (QC) samples using five replicates of rat samples at three concentration levels on one or three validation days, respectively. Accuracy and precision were expressed by relative error (RE) and relative standard deviation (RSD), respectively. The extraction recovery and matrix effect of the 6 components at above-mentioned three concentration levels were determined. Stability was assessed under the condition of placing un-treated plasma samples at room temperature for 6 h, and extracted plasma samples in auto-sampler for 10 h, as well as placing plasma samples within freeze-thaw three cycles and at −80 °C for 15 days.

[4] = Stability in diluted SI at room temperature; conditions: analyzed at 0, 2, 4, 8, 12, 24, and 48 h
[5] = tested on: H9c2 cardiomyocytes injured by H2O2; assay: TMT quantitative proteomics of H2O2-injured cardiomyocytes; assay type: cell-based; conditions: 195 μM
Experimental: The procedures for cell culture, group and administration are similar to those in “2.7. […] Briefly, the difference is that H9c2 cells were seeded and cultured in a culture flask with a bottom area of 25 cm^2 with a density 1×10^5 cells/ml. After treatment, about 3×10^7 cells per group were collected for the next quantitative proteomics investigation, which was done by Jingjie PTM Biolabs (Hangzhou, China). All the procedures for quantitative proteomics can be found in the section of “5. Quantitative proteomics” of the Supplementary Material.
The quantitative proteomics study was carried out according to our previous report ([Li et al., 2022]). Relative quantitative values of proteins in two samples were compared via t-test. […] The identified difference proteins between groups were subjected further to principal component analysis (PCA). […] The subcellular structure location was analyzed using these proteins as objectives.

Compound: O=c1c(O)c(-c2ccc(O)c(O)c2)oc2cc(O)cc(O)c12 [quercetin]
concentration at 15 min ([1]; 2 ml/kg): < 0.5 ng/mL
Stability RSD [4]: 2.51%

Compound: O=C(O)/C=C/c1ccccc1 [trans-cinnamic acid]
Stability RSD [4]: 1.86%

Compound: hydroxysafflor yellow A [HSYA]
cell viability vs. model group ([2]; 10 μM, pretreated 24 h, 250 μM H2O2 2 h): higher cell viability than the model group
anti-H2O2 injury effect (protection rate) ([2]; 1, 5 and 10 μM): concentration-dependent
protection rate ([2]; […] μM, preliminary test at maximum detected plasma concentration): about 26%
proteins significantly downregulated vs. M group ([5]; fold change ≤1/1.5, p <0.05): 205 proteins
proteins significantly upregulated vs. M group ([5]; fold change ≥1.5, p <0.05): 148 proteins
KEGG pathway regulation ([5]; vs. M group): downregulated the ribosome pathway and upregulated the lysosome pathway
changed protein expression located at the cytoplasm ([5]; vs. M group): 41.64%
changed protein expression located at the nucleus ([5]; vs. M group): 27.48%

Further lines, with some results ahead:

concentration at 15 min ([1]; 2 ml/kg): < 0.5 ng/mL
Compound: O=c1c(O)c(-c2ccc(O)cc2)oc2cc(O)cc(O)c12 [kaempferol]

detection in rat plasma ([1]; 1 h after administration (2 ml/kg of SI), preliminary test): can be detected
AUC(0-inf) ([1]; 1 ml/kg): 67.7 ± 57.2 ng·h/mL
AUC(0-t) ([1]; 1 ml/kg): 62.5 ± 50 ng·h/mL
Cmax ([1]; 1 ml/kg): 305 ± 147 ng/mL
MRT inf ([1]; 1 ml/kg): 7.2 ± 4.2 min
MRT last ([1]; 1 ml/kg): 6 ± 3 min
Vd ([1]; 1 ml/kg): 0.11 ± 0.03 L/kg
clearance ([1]; 1 ml/kg): 20.2 mL/min/kg
half-life ([1]; 1 ml/kg): 4.8 ± 3 min
AUC(0-inf) ([1]; 2 ml/kg): 277 ± 84 ng·h/mL
AUC(0-t) ([1]; 2 ml/kg): 265 ± 89.7 ng·h/mL
Cmax ([1]; 2 ml/kg): 715 ± 85.8 ng/mL
MRT inf ([1]; 2 ml/kg): 19.8 ± 0.6 min
MRT last ([1]; 2 ml/kg): 16.2 ± 1.8 min
Vd ([1]; 2 ml/kg): 0.13 ± 0.07 L/kg
clearance ([1]; 2 ml/kg): 6.67 mL/min/kg
half-life ([1]; 2 ml/kg): 13.2 ± 3.6 min
AUC(0-inf) ([1]; 4 ml/kg): 469 ± 38.1 ng·h/mL
AUC(0-t) ([1]; 4 ml/kg): 433 ± 44.5 ng·h/mL
Cmax ([1]; 4 ml/kg): 1260 ng/mL
MRT inf ([1]; 4 ml/kg): 19.2 ± 2.4 min
MRT last ([1]; 4 ml/kg): 15 ± 2.4 min
Vd ([1]; 4 ml/kg): 0.14 ± 0.03 L/kg
clearance ([1]; 4 ml/kg): 7.5 mL/min/kg
half-life ([1]; 4 ml/kg): 12.6 ± 3 min
10h in auto-sampler vials RE ([3]; spiked 150 ng/mL): -6.50%
10h in auto-sampler vials RE ([3]; spiked 400 ng/mL): 0.06%
10h in auto-sampler vials RE ([3]; spiked 10000 ng/mL): -4.10%
6h at room temperature RE ([3]; spiked 150 ng/mL): -2.67%
Freeze-thaw stability (three cycles) RE ([3]; spiked 150 ng/mL): 0.13%
Long-term stability (-80℃,15 days) RE ([3]; spiked 150 ng/mL): -0.13%
6h at room temperature RE ([3]; spiked 400 ng/mL): -2.50%
Freeze-thaw stability (three cycles) RE ([3]; spiked 400 ng/mL): 3.70%
Long-term stability (-80℃,15 days) RE ([3]; spiked 400 ng/mL): 1.40%
6h at room temperature RE ([3]; spiked 10000 ng/mL): -2.72%
Freeze-thaw stability (three cycles) RE ([3]; spiked 10000 ng/mL): -1.55%
Long-term stability (-80℃,15 days) RE ([3]; spiked 10000 ng/mL): 6.82%
Stability RSD [4]: 3.29%
Compound: O=C(O)/C=C/c1ccc(O)cc1 [p-CA, p-coumaric acid]
protection ([2]; 8.5 μM, preliminary test at maximum detected plasma concentration): absence of protection

concentration at 15 min ([1]; 2 ml/kg): < 0.5 ng/mL
Stability RSD [4]: 2.81%
Compound: O=c1ccn([C@@H]2O[C@H](CO)[C@@H](O)[C@H]2O)c(=O)[nH]1 [uridine]

From publication PMC9727182, “Identification of pharmacokinetic markers for safflower injection using a combination of system pharmacology, multicomponent pharmacokinetics, and quantitative proteomics study” (Frontiers in Pharmacology, 2022)
